Test results taken from ChEMBL document CHEMBL1154445, “Identification of "toxicophoric" features for predicting drug-induced QT interval prolongation” (Eur J Med Chem, 2008).

Assays:
Cavia porcellus [1] = assay: Cardiotoxicity in Dunkin-Hartley guinea pig assessed as maximal QTc prolongation time at 10 mg/kg, iv administered as 3 fold cumulative doses measured every 10 seconds at end of every 20 mins follow up period of individual dose by ECG; format: toxicity, organism-based; design: dose 10 mg/kg, route intravenous; details: in vivo
Cavia porcellus [2] = assay: Cardiotoxicity in iv dosed Dunkin-Hartley guinea pig assessed as drug level required to evoke 50 ms QTc prolongation administered as 3 fold cumulative doses measured every 10 seconds at end of every 20 mins follow up period of individual dose by ECG
[3] = biological target: Voltage-gated inwardly rectifying potassium channel KCNH2 (Homo sapiens, UniProt Q12809); assay: Inhibition of human ERG channel in HEK293 cells by voltage-clamp method; details: for pIC50(uM): human
Cavia porcellus [4] = assay: Toxicity to Dunkin-Hartley guinea pig assessed as marked bradyarrhythmia and death at 10 mg/kg, iv; format: organism-based; design: dose 10 mg/kg, route intravenous; details: in vivo
Cavia porcellus [5] = assay: Cardiotoxicity in Dunkin-Hartley guinea pig assessed as maximal QTc prolongation time at 3 mg/kg, iv administered as 3 fold cumulative doses measured every 10 seconds at end of every 20 mins follow up period of individual dose by ECG; format: toxicity, organism-based; design: dose 3 mg/kg, route intravenous; details: in vivo

Sequence of Voltage-gated inwardly rectifying potassium channel KCNH2 (Q12809 whole entry): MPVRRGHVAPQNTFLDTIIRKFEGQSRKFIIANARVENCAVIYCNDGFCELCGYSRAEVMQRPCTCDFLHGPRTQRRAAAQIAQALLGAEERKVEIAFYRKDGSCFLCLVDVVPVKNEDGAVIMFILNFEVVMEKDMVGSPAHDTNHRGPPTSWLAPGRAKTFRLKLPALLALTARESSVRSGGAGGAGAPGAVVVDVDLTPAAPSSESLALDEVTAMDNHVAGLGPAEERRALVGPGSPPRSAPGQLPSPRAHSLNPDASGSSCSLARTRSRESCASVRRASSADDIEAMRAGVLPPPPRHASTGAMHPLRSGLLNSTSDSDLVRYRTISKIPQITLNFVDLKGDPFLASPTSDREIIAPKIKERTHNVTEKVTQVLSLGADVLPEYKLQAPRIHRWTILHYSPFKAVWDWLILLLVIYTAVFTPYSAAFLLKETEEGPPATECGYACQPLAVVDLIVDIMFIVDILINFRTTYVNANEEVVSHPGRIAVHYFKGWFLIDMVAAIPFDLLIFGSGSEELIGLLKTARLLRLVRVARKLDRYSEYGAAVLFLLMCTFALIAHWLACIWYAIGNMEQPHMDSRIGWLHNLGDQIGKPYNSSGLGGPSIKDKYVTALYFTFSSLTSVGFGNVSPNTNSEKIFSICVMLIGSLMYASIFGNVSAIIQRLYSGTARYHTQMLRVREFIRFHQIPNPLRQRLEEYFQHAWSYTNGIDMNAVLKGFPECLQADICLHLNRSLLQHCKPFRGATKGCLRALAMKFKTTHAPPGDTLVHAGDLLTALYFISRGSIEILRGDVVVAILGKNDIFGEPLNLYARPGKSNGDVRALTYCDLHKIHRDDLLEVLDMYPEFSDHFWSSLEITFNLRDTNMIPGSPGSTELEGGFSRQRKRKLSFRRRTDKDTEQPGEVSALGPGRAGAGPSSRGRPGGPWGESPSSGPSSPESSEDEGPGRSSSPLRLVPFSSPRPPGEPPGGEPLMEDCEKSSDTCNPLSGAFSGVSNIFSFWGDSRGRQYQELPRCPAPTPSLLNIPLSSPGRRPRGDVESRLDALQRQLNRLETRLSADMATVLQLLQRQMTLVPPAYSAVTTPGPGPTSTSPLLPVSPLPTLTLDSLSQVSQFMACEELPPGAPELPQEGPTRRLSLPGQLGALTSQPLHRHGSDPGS

Row | SMILES | Emax (Cavia porcellus [1]) [ms] | EC50 (Cavia porcellus [2]) [µmol/kg] | pEC50 (Cavia porcellus [2]) | other results
1 | C=C[C@H]1C[N@@]2CC[C@H]1C[C@@H]2[C@@H](O)c1ccnc2ccc(OC)cc12 [QUINIDINE] | 78.6 | 8.34 | 2.55 | –
2 | CCCN(CCC)C1CCc2cccc(O)c2C1 (stereo not given) [8-OH-DPAT] | 116.3 | 4.57 | 2.95 | –
3 | COc1cc(N)c(Cl)cc1C(=O)NC1CCN(CCCOc2ccc(F)cc2)CC1OC (stereo not given) [CISAPRIDE] | 81.9 | 2.12 | 3 | –
4 | O=C(CCCN1CCC(O)(c2cccc(C(F)(F)F)c2)CC1)c1ccc(F)cc1 [TRIFLUPERIDOL] | 74.7 | 7.65 | 2.51 | –
5 | O=C(CCCN1CCC2(CC1)C(=O)NCN2c1ccccc1)c1ccc(F)cc1 [SPIPERONE] | 100 | – | – | –
6 | O=C(CCCN1CCC(O)(c2ccc(Cl)cc2)CC1)c1ccc(F)cc1 [HALOPERIDOL] | 123.3 | 0.88 | 3.48 | –
7 | CNCCC(Oc1ccccc1OC)c1ccccc1 (stereo not given) [NISOXETINE] | 37.5 | – | – | –
8 | Oc1ccc(CCN2CCC(Nc3nc4ccccc4n3Cc3ccc(F)cc3)CC2)cc1 [DESMETHEYLASTEMIZOLE] | – | – | – | IC50 [3]: 0.001 µM
9 | CCC1(c2ccccc2)C(=O)NC(=O)NC1=O [PHENOBARBITAL] | – | – | – | pIC50(uM) ([3]; HEK293 cells expressing human ERG channel): -3.48
10 | CN1CCC[C@H]1c1cccnc1 [NICOTINE] | – | – | – | pIC50(uM) ([3]; hek293): -2.39
11 | COC(=O)C1=CC[C@@H]2CC[C@H]1N2C [METHYLECGONIDINE] | – | – | – | pIC50(uM) ([3]; hek293): -2.23
12 | CCCCNc1ccc(C(=O)OCCN(C)C)cc1 [TETRACAINE] | 91.5 | 9.04 | 2.62 | –
13 | CN1CCN(C2=Nc3ccccc3Nc3sc(CO)cc32)CC1 | – | – | – | IC50 [3]: 11.5 µM
14 | COc1ccc(CCN2CCC(Nc3nc4ccccc4n3Cc3ccc(F)cc3)CC2)cc1 [ASTEMIZOLE] | – | 0.39 | 3.74 | –
15 | Cc1nc2sccn2c(=O)c1CCN1CCC(=C(c2ccc(F)cc2)c2ccc(F)cc2)CC1 [RITANSERIN] | – | 0.19 | 4.05 | Activity (Cavia porcellus [4]): Toxic; Emax (Cavia porcellus [5]): 106.8 ms
16 | CC(C)NCC(O)c1ccc(NS(C)(=O)=O)cc1 (stereo not given) [SOTALOL] | 97.3 | 6.2 | 2.77 | –
17 | CN1CC(=O)N2[C@H](c3ccc4c(c3)OCO4)c3[nH]c4ccccc4c3C[C@@H]2C1=O | – | – | – | IC50 [3]: 100 µM
